Reference: ChEMBL document CHEMBL1255357, “Enrichment of fluoroquinolone-resistant Staphylococcus aureus: oscillating ciprofloxacin concentrations simulated at the upper and lower portions of the mutant selection window” (Antimicrob Agents Chemother, 2008)
Active and inactive are the calls of the source. The calls are words filed in the database; no cut-off is given here.

What was measured:
Staphylococcus aureus [1] = experiment: Antimicrobial activity against methicillin-resistant Staphylococcus aureus ATCC 6538 assessed as mutant prevention concentration after 48 hrs; type: functional, organism-based
Staphylococcus aureus [2] = experiment: Antimicrobial activity against methicillin-resistant Staphylococcus aureus ATCC 43300 assessed as mutant prevention concentration after 48 hrs; type: functional, organism-based

## O=C(O)c1cn(C2CC2)c2cc(N3CCNCC3)c(F)cc2c1=O
Staphylococcus aureus [1]
  Activity: Active
Staphylococcus aureus [2]
  Activity: Active
